The values below come from patent USH1996H, “Insecticidal photostable acid salt derivatives of N-benzyl-4-benzhydrolpiperidines” (FMC Corporation, priority 1998, dated 2001).

A short description of data set [1]: photostability under Suntest CPS illuminator (filtered xenon lamp), HPLC. The format is physicochemical. Conditions: photodegradation of thin film on glass coverslips, simulated sunlight (xenon lamp), about 25 °C, 0-96 hours. On the procedure: Compounds of the present invention were subjected to determinations of their photostability in side-by-side tests with their non-ionic parent analogs. These photostability tests are conducted as follows:
For each compound tested, four glass microscope coverslips (12 mm in diameter) for each illumination period (0, 3, 6, 12, 24, 48, and 96 hours) are spotted with 10 microliters of a one mg/mL acetonitrile or methanol solution of test compound. The solutions are allowed to evaporate leaving a thin film of test compound on each coverslip. The four coverslips representing the zero hour illumination period are placed in a 20 mL scintillation vial. In the vile is placed one mL of acetonitrile, which extracts the test chemical from the coverslip. The solution is then transferred to a two dram vile for analysis by HPLC. The average HPLC peak area generated by this sample defines the initial level of test compound. The remaining coverslips are then placed in the water-cooled chamber of the exposure platform of a Suntest CPS illuminator (Heraeus Instruments GmbH; Bereich Original Hanau, Hersaeusstrasse R-14, Postfach 1563, D-6450 Hanau 1). The exposure platform is covered with a quartz plate and maintained at about 25° C. for the duration of the test. The Suntest CPS illuminator employs a filtered xenon lamp, which provides illumination of a similar spectrum and intensity as sunlight. Four coverslips for each test compound are removed from the illuminator at the end of each illumination period described above. The four coverslips from each of the illumination periods are treated as described above and the acetonitrile extract is analyzed by HPLC. The average HPLC peak area from each of the illumination periods represents a diminished amount of test compound when compared to the initial level of test compound as determined from the zero hour illumination sample. The percents of test compound remaining from each of these illumination periods are used to generate a degradation curve from which a half life in hours is determined for each test compound.

In data set [2] the test system is tobacco budworm (Heliothis virescens [Fabricius]). The experiment in a line: insecticidal activity against tobacco budworm, treated artificial diet surface. The format is in vivo. To be noted: 0.0025 millimoles on the surface of the diet; second instar larvae; five-day exposure; 7200 min. On the procedure: Candidate insecticides are evaluated for activity against tobacco budworm (Heliothis virescens [Fabricius]) by applications to the surface of a wheat germ-based artificial insect diet. Solutions of the candidate insecticides are prepared for testing by diluting a standard 50 millimolar DMSO solution of each candidate insecticide with DMSO, then further diluting with a 1:1 water/acetone solution (V/V). Forty microliters of this solution of calculated concentration is then pipetted onto the surface of the diet in each of six containers, to provide six replicates for each rate of application. Once treated, the contents of the containers are allowed to dry, leaving the calculated concentration ( in millimoles) of candidate insecticide on the surface of the diet. In each container is placed one second instar tobacco budworm […]. The container is sealed with a transparent film, and then held in a growth chamber for five days. After the five-day exposure period the insecticidal activity of the candidate insecticide is recorded as percent mortality when compared to the total number of insects infested. Insecticidal activity at a concentration of candidate insecticide of 0.0025 millimoles on the surface of the diet is given for various compounds of this invention in Table 4.

Where a name gives a salt, the structure may show the parent alone.

Turning to `CCn1nnc(-c2ccc(CN3CCC(C(O)(c4ccc(C(F)(F)F)cc4)c4ccc(C(F)(F)F)cc4)CC3)cc2)n1` [A, reference compound], in data set [1], the Half-life is 5.5 h.
Take `CCn1nnc(-c2ccc(C[N+]3([O-])CCC(C(O)(c4ccc(C(F)(F)F)cc4)c4ccc(C(F)(F)F)cc4)CC3)cc2)n1` (centres unmarked) [B, N-[4-(2-ethyl-2H-tetrazol-5-yl)phenylmethyl]-4-[bis(4-trifluoromethylphenyl)hydroxymethyl]piperidine N-oxide, reference compound]: the Half-life in data set [1] is 13.9 h.
The same measure, in the same setting: next, `CCn1nnc(-c2ccc(CN3CCC(C(O)(c4ccc(C(F)(F)F)cc4)c4ccc(C(F)(F)F)cc4)CC3)cc2)n1` [Compound 7]: 23.0 h.
For the compound `COC(=O)Nc1ccc(C[N+]2([O-])CCC(C(O)(c3ccc(OC(F)(F)F)cc3)c3ccc(OC(F)(F)F)cc3)CC2)cc1` (centres unmarked) [Compound 16], in data set [2], the “Percent Mortality” value was 100%.
For `CCn1nnc(-c2ccc(C[N+]3([O-])CCC(C(O)(c4ccc(C(F)(F)F)cc4)c4ccc(C(F)(F)F)cc4)CC3)cc2)n1` (centres unmarked) [Compound 33, N-[4-(2-ethyl-2H-tetrazol-5-yl)phenylmethyl]-4-[bis(4-trifluoro-methylphenyl)hydroxymethyl]piperidine N-oxide ethanesulfonic acid salt], the Half-life in data set [1] was 34.0 h.
